Reference: ChEMBL document CHEMBL1123640, “Synthesis and antiviral activity of carbocyclic analogues of xylofuranosides of 2-amino-6-substituted-purines and 2-amino-6-substituted-8-azapurines” (1987)
Converted amounts (≈) assume the structure as drawn.

Experiments:
Human alphaherpesvirus 2 [1] = assay: The compound was tested in vitro for definite and significant anti viral activity against Herpes simplex virus type 2 (strain MS) (experiment 2); value indicates definite and significant antiviral activity; type: functional
Human alphaherpesvirus 2 [2] = assay: Minimum inhibitory concentration required to inhibit Herpes simplex virus type 2 (strain MS) induced cytopathogenic effects by 50%. (experiment 2); type: functional; settings: Human alphaherpesvirus 2, MS
P388 = assay: Tested for inhibitory activity against P-388 leukemia cells; type: functional; settings: Mus musculus, read-out: ED50 (the source's name)
Human alphaherpesvirus 1 [3] = assay: The compound was tested in vitro for definite and significant anti viral activity against Herpes simplex virus type 1 (strain 377) (experiment 1); value indicates definite and significant antiviral activity; type: functional
Human alphaherpesvirus 1 [4] = assay: Minimum inhibitory concentration required to inhibit Herpes simplex virus type 1 (strain 377) induced cytopathogenic effects by 50%. (experiment 1); type: functional
Human alphaherpesvirus 2 [5] = assay: The compound was tested in vitro for definite and significant anti viral activity against Herpes simplex virus type 2 (strain MS) (experiment 1); value indicates definite and significant antiviral activity; type: functional
Human alphaherpesvirus 1 [6] = assay: Minimum inhibitory concentration required to inhibit Herpes simplex virus type 1 (strain 377) induced cytopathogenic effects by 50%. (experiment 2); type: functional
Human alphaherpesvirus 2 [7] = assay: Minimum inhibitory concentration required to inhibit Herpes simplex virus type 2 (strain MS) induced cytopathogenic effects by 50%. (experiment 1); type: functional; settings: Human alphaherpesvirus 2, MS
Human alphaherpesvirus 1 [8] = assay: The compound was tested in vitro for definite and significant anti viral activity against Herpes simplex virus type 1 (strain 377) (experiment 2); value indicates definite and significant antiviral activity; type: functional
MRC5 [9] = assay: Cytotoxicity (gross morphology) was evaluated at 32 uM; type: functional, Homo sapiens
MRC5 [10] = assay: Replication of human cytomegalovirus strain […] virus yield reduction assay in human diploid embryonic lung cells (MRC5) at 1000 uM (308 ug/mL); type: functional
Human alphaherpesvirus 1 [11] = assay: The compound was tested in vitro for anti viral activity against Herpes simplex virus type 1 (strain 377) (experiment 2); value indicates definite and significant antiviral activity; type: functional
MRC5 [12] = assay: Replication of human cytomegalovirus strain […] virus yield reduction assay in human diploid embryonic lung cells (MRC5) at 32 uM; type: functional
MRC5 [13] = assay: Replication of human cytomegalovirus strain […] virus yield expressed as plaque forming units/mL at 3.2 uM; type: functional
MRC5 [14] = assay: (§1) Cytotoxicity was determined at 320 uM; type: functional, Homo sapiens
Human alphaherpesvirus 1 [15] = assay: The compound was tested in vitro for anti viral activity against Herpes simplex virus type 1 (strain 377) (experiment 1); value indicates definite and significant antiviral activity; type: functional
MRC5 [16] = assay: Replication of human cytomegalovirus strain […] virus yield expressed as plaque forming units/mL at 10 uM; type: functional
Human alphaherpesvirus 2 [17] = assay: The compound was tested in vitro for anti viral activity against Herpes simplex virus type 2 (strain MS) (experiment 1); value indicates definite and significant antiviral activity
MRC5 [18] = assay: Cytotoxicity (gross morphology) was evaluated at 100 uM; type: functional, Homo sapiens
Homo sapiens [19] = species on record: Homo sapiens; assay: Antiviral activity against Varicella-Zoster virus (VV) in human foreskin cell cultures in virus plaque reduction assay at 320 uM; type: functional
MRC5 [20] = assay: Cytotoxicity (gross morphology) was evaluated at 10 uM; type: functional, Homo sapiens
MRC5 [21] = assay: (§2) Cytotoxicity was determined at 32 uM; type: functional, Homo sapiens
MRC5 [22] = assay: Replication of human cytomegalovirus strain […] virus yield expressed as plaque forming units/mL at 320 uM; type: functional
Homo sapiens [23] = species on record: Homo sapiens; assay: Antiviral activity against Varicella-Zoster virus (VV) in human foreskin cell cultures in virus plaque reduction assay at 32 uM; type: functional
MRC5 [24] = assay: Percent reduction of CPE (plaques) at the time of harvest at 32 uM; type: functional, Homo sapiens
Homo sapiens [25] = species on record: Homo sapiens; assay: Antiviral activity against Varicella-Zoster virus (VV) in human foreskin cell cultures in virus plaque reduction assay at 1000 uM; type: functional
MRC5 [26] = assay: Replication of human cytomegalovirus strain […] virus yield expressed as plaque forming units/mL at 32 uM; type: functional
Homo sapiens [27] = species on record: Homo sapiens; assay: Antiviral activity against Varicella-Zoster virus (VV) in human foreskin cell cultures in virus plaque reduction assay at 100 uM; type: functional
Homo sapiens [28] = species on record: Homo sapiens; assay: Antiviral activity against Varicella-Zoster virus (VV) in human foreskin cell cultures in virus plaque reduction assay at 1 uM; type: functional
MRC5 [29] = assay: Percent reduction of CPE (plaques) at the time of harvest at 320 uM; type: functional, Homo sapiens
MRC5 [30] = assay: Replication of human cytomegalovirus strain […] virus yield reduction assay in human diploid embryonic lung cells (MRC5) at 320 uM; type: functional
Human alphaherpesvirus 2 [31] = assay: The compound was tested in vitro for anti viral activity against Herpes simplex virus type 2 (strain MS) (experiment 2); value indicates definite and significant antiviral activity
MRC5 [32] = assay: Replication of human cytomegalovirus strain […] virus yield expressed as plaque forming units/mL at 100 uM; type: functional
MRC5 [33] = assay: Cytotoxicity (gross morphology) was evaluated at 3.2uM; type: functional, Homo sapiens
Human alphaherpesvirus 2 [34] = assay: Minimum inhibitory concentration required to inhibit Herpes simplex virus type 2 (strain MS) induced cytopathogenic effects by 50%. (experiment 1)
Homo sapiens [35] = species on record: Homo sapiens; assay: Antiviral activity against Varicella-Zoster virus (VV) in human foreskin cell cultures in virus plaque reduction assay at 3.2uM; type: functional
MRC5 [36] = assay: Replication of human cytomegalovirus strain […] virus yield expressed as plaque forming units/mL at 1000 uM (308 ug/mL); type: functional
Homo sapiens [37] = species on record: Homo sapiens; assay: Antiviral activity against Varicella-Zoster virus (VV) in human foreskin cell cultures in virus plaque reduction assay at 10 uM; type: functional
MRC5 [38] = assay: Percent reduction of CPE (plaques) at the time of harvest at 100 uM; type: functional, Homo sapiens
MRC5 [39] = assay: Replication of human cytomegalovirus strain […] virus yield reduction assay in human diploid embryonic lung cells (MRC5) at 1 uM; type: functional
MRC5 [40] = assay: Replication of human cytomegalovirus strain […] virus yield reduction assay in human diploid embryonic lung cells (MRC5) at 3.2 uM; type: functional
MRC5 [41] = assay: Replication of human cytomegalovirus strain […] virus yield expressed as plaque forming units/mL at 1 uM; type: functional
MRC5 [42] = assay: (§3) Cytotoxicity was determined at 100 uM; type: functional, Homo sapiens
MRC5 [43] = assay: Cytotoxicity (gross morphology) was evaluated at 1 uM; type: functional, Homo sapiens
MRC5 [44] = assay: Replication of human cytomegalovirus strain […] virus yield reduction assay in human diploid embryonic lung cells (MRC5) at 100 uM; type: functional
MRC5 [45] = assay: Replication of human cytomegalovirus strain […] virus yield reduction assay in human diploid embryonic lung cells (MRC5) at 10 uM; type: functional
MRC5 [46] = assay: Percent reduction of CPE (plaques) at the time of harvest at 3.2 uM; type: functional, Homo sapiens
MRC5 [47] = assay: Percent reduction of CPE (plaques) at the time of harvest at 1 uM; type: functional, Homo sapiens
MRC5 [48] = assay: Percent reduction of CPE (plaques) at the time of harvest at 10 uM; type: functional, Homo sapiens
Human alphaherpesvirus 2 [49] = assay: Minimum inhibitory concentration required to inhibit Herpes simplex virus type 2 (strain MS) induced cytopathogenic effects by 50%. (experiment 2)
MRC5 [50] = assay: Percent reduction of CPE (plaques) at the time of harvest at 1000 uM (308 ug/mL); type: functional, Homo sapiens
Homo sapiens [51] = species on record: Homo sapiens; assay: as §3; type: functional
Homo sapiens [52] = species on record: Homo sapiens; assay: Cytotoxicity was determined at 1000 uM; type: functional
Homo sapiens [53] = species on record: Homo sapiens; assay: Antiviral activity against Varicella-Zoster virus (VV) in human foreskin cell cultures in virus plaque reduction assay at 3.2 uM; type: functional
Homo sapiens [54] = species on record: Homo sapiens; assay: as §2; type: functional
Homo sapiens [55] = species on record: Homo sapiens; assay: as §1; type: functional
Human alphaherpesvirus 2 [56] = assay: Minimum inhibitory concentration required to inhibit Herpes simplex virus type 2 (strain MS) induced cytopathogenic effects by 50%.; type: functional
Human alphaherpesvirus 2 [57] = assay: The compound was tested in vitro for anti viral activity against Herpes simplex virus type 2 (strain MS); type: functional
Human alphaherpesvirus 1 [58] = assay: The compound was tested in vitro for anti viral activity against Herpes simplex virus type 1 (strain 377); type: functional
Human alphaherpesvirus 1 [59] = assay: Minimum inhibitory concentration required to inhibit Herpes simplex virus type 1 (strain 377) induced cytopathogenic effects by 50%.; type: functional

Nc1nc(O)c2nnn(C3CC(CO)C(O)C3O)c2n1 (stereo unspecified)
Virus rating (Human alphaherpesvirus 2 [1]): 1.1 | MIC50 (Human alphaherpesvirus 2 [2]): 240 µg/mL (≈ 852 µM) | EC50 (P388): 1.6 µM | Virus rating (Human alphaherpesvirus 1 [3]): 2.4 | MIC50 (Human alphaherpesvirus 1 [4]): 60.8 µg/mL (≈ 215 µM) | Virus rating (Human alphaherpesvirus 2 [5]): 1.3 | MIC50 (Human alphaherpesvirus 1 [6]): 93.1 µg/mL (≈ 330 µM) | MIC50 (Human alphaherpesvirus 2 [7]): 92.2 µg/mL (≈ 327 µM) | Virus rating (Human alphaherpesvirus 1 [8]): 2.5

Nc1nc(O)c2ncn(C3CC(CO)C(O)C3O)c2n1 (stereo unspecified)
Cytotoxicity (MRC5 [9]): 0 | Virus yield reduction (MRC5 [10]): 5.2 | Virus rating (Human alphaherpesvirus 1 [11]): 5.6 | Virus yield reduction (MRC5 [12]): 1.1 | EC50 (P388): 8.9 µM | CMV yield (MRC5 [13]): 108000 pfu/ml | Cytotoxicity (MRC5 [14]): 0 | Virus rating (Human alphaherpesvirus 1 [15]): 5.7 | CMV yield (MRC5 [16]): 96000 pfu/ml | Virus rating (Human alphaherpesvirus 2 [17]): 2.6 | Cytotoxicity (MRC5 [18]): 0 | Reduction (Homo sapiens [19]): 100% | Cytotoxicity (MRC5 [20]): 0 | Cytotoxicity (MRC5 [21]): 0 | CMV yield (MRC5 [22]): 0 pfu/ml | Reduction (Homo sapiens [23]): 79% | Reduction (MRC5 [24]): 25% | Reduction (Homo sapiens [25]): 100% | CMV yield (MRC5 [26]): 12800 pfu/ml | Reduction (Homo sapiens [27]): 100% | Reduction (Homo sapiens [28]): 18% | Reduction (MRC5 [29]): 100% | Virus yield reduction (MRC5 [30]): 5.2 | Virus rating (Human alphaherpesvirus 2 [31]): 3.9 | CMV yield (MRC5 [32]): 100 pfu/ml | MIC50 (Human alphaherpesvirus 1 [4]): 1.8 µg/mL (≈ 6.4 µM) | Cytotoxicity (MRC5 [33]): 0 | MIC50 (Human alphaherpesvirus 2 [34]): 22.8 µg/mL (≈ 81.1 µM) | MIC50 (Human alphaherpesvirus 1 [6]): 3 µg/mL (≈ 10.7 µM) | Reduction (Homo sapiens [35]): 18% | CMV yield (MRC5 [36]): 0 pfu/ml | Reduction (Homo sapiens [37]): 26% | Reduction (MRC5 [38]): 80% | Virus yield reduction (MRC5 [39]): 0.2 | Virus yield reduction (MRC5 [40]): 0.2 | CMV yield (MRC5 [41]): 96000 pfu/ml | Cytotoxicity (MRC5 [42]): 0 | Cytotoxicity (MRC5 [43]): 0 | Virus yield reduction (MRC5 [44]): 3.2 | Virus yield reduction (MRC5 [45]): 0.2 | Reduction (MRC5 [46]): 0% | Reduction (MRC5 [47]): 0% | Reduction (MRC5 [48]): 0% | MIC50 (Human alphaherpesvirus 2 [49]): 23.5 µg/mL (≈ 83.5 µM) | Reduction (MRC5 [50]): 100%

Nc1nc2c(ncn2COCCO)c(=O)[nH]1 [ACYCLOVIR]
Reduction (Homo sapiens [19]): 100% | Reduction (Homo sapiens [23]): 79% | Reduction (Homo sapiens [25]): 100% | Reduction (Homo sapiens [27]): 94% | Cytotoxicity (Homo sapiens [51]): 0 | Reduction (Homo sapiens [28]): 35% | Cytotoxicity (Homo sapiens [52]): 0 | Reduction (Homo sapiens [53]): 32% | Cytotoxicity (Homo sapiens [54]): 0 | Reduction (Homo sapiens [37]): 41% | Cytotoxicity (Homo sapiens [55]): 0

Nc1nc2c(ncn2COC(CO)CO)c(=O)[nH]1 [GANCICLOVIR]
Reduction (Homo sapiens [19]): 97% | Reduction (Homo sapiens [23]): 56% | Reduction (Homo sapiens [25]): 97% | Reduction (Homo sapiens [27]): 82% | Cytotoxicity (Homo sapiens [51]): 0 | Reduction (Homo sapiens [52]): 0 | Reduction (Homo sapiens [53]): 24% | Cytotoxicity (Homo sapiens [54]): 0 | Reduction (Homo sapiens [37]): 35% | Cytotoxicity (Homo sapiens [55]): 0

Nc1ncnc2c1ncn2[C@@H]1O[C@H](CO)[C@@H](O)[C@@H]1O [VIDARABINE]
MIC50 (Human alphaherpesvirus 2 [56]): 30 µg/mL (≈ 112 µM) | Reduction (Homo sapiens [19]): 100% | Reduction (Homo sapiens [23]): 97% | Reduction (Homo sapiens [27]): 97% | Cytotoxicity (Homo sapiens [51]): 0 | Reduction (Homo sapiens [53]): 18% | Cytotoxicity (Homo sapiens [54]): 0 | Reduction (Homo sapiens [37]): 44% | Virus rating (Human alphaherpesvirus 2 [57]): 2.3 | Virus rating (Human alphaherpesvirus 1 [58]): 3.1 | MIC50 (Human alphaherpesvirus 1 [59]): 9.8 µg/mL (≈ 36.7 µM)
